According to patent US20090093471A1, “Methods of Treating Nervous Disorders” (priority 2005, published 2009):
Read-outs that look alike come from different tables or passages of the source.

Experiments:
[1] = system: APP processing (α-secretase pathway, CTFs) in swAPP-HEK293 cells; assay: Western blot of APP, sAPPα, C83 and C99 in swAPP-HEK293 cells
Method: swAPP-HEK293 cells were scraped and lysed in CelLytic-M (Sigma). Protein concentrations were determined by the Bradford procedure. Equal quantity of proteins were separated on a 10% SDS-PAGE gel and transferred to Hybond-C (Amersham Biosciences) membranes. After transfer, membranes were blocked with 5% nonfat milk and incubated overnight with the primary antibody anti-APP antibody at 1/1000 (Serotec), allowing the detection of both APP and C83-C99 CTFs under specific separation and exposure conditions. For sAPPα detection, cells were allowed to secrete for 7 h. Media were collected, centrifuged and then equal amount of secretate were loaded on 10% SDS-PAGE and Western blotted with 6E10 monoclonal antibody (1/1000).

[2] = system: intracellular Aβ 40 and Aβ 42 in swAPP-HEK293 cells; assay: Intracellular (cell-associated) Aβ 40 and Aβ 42 ELISA, swAPP-HEK293 cells; type: cell-based, human; conditions: qualitative; for Aβ 40 and Aβ 42 intracellular levels: swAPP-HEK293 cell lysates, normalized to cellular protein
[3] = system: Notch-1 (NotchΔE) cleavage; assay: NotchΔE transfection and Notch-1 cleavage assay in Hela cells; conditions: Hela cells overexpressing NotchΔE, up to 16 hours; DAPT 2 μM
[4] = system: Aβ 40 and Aβ 42 production in swAPP-HEK293 cells; assay: Secreted Aβ 40 and Aβ 42 ELISA, swAPP-HEK293 cells; type: cell-based, human; conditions: for secreted Aβ 40 and Aβ 42: swAPP-HEK293, 18 h, 20, 10 or 2 μM
Source text: Human APP harbouring the “Swedish” mutation (swAPP) is more prone to processing than wtAPP.

RhoA = RhoA (Homo sapiens, UniProt P61586); conditions: Gao et al. 2004, Picard et al., submitted, cited from earlier work
RhoA, sequence (P61586 whole entry, species assumed): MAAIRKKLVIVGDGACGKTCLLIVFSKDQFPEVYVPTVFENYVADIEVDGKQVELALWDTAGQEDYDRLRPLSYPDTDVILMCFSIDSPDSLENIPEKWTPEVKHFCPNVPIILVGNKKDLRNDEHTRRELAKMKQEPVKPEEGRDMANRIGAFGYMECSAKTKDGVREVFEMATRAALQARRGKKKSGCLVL

γ-secretase [5] = assay: γ-Secretase assay, de novo Aβ generation from membranes of compound-treated cells; type: cell-based; conditions: cells incubated with compound for 16 hours
Method: We implemented a an assay allowing de novo Aβ generation in vitro, using cell membranes as the source of γ-secretase. Preparation of solubilized γ-secretase fractions was performed essentially as described previously (Li, Y. M., Lai, M. T., Xu, M., Huang, Q., DiMuzio-Mower, J., Sardana, M. K., Shi, X. P., Yin, K. C., Shafer, J. A., and Gardell, S. J. (2000) Proc. Natl. Acad. Sci. U.S.A. 97, 6138-6143) with the above modifications. All incubations were performed in the presence of Complete Protease Inhibitor Cocktail. Confluent plates swAPP-HEK293 cells were lysed in 1 ml of ice-cold CelLytic-M (Sigma) and incubated 15 minutes at 4° C. on a shaker. Cell debris and nuclei were removed by centrifugation at 1000×g for 15 min at 4° C. […] Solubilized γ-secretase activity was induced at 37° C. for 2 h with or without the indicated treatments and Aβ 40 generated de novo was quantified by ELISA. […]
To test this hypothesis, we used an established γ-secretase assay allowing de novo Aβ generation in vitro, using cell membranes as the source of γ-secretase. Solubilized γ-secretase fractions are activated in a γ-secretase buffer (see experimental procedures) and activity is monitored following either the cleavage of an internally quenched fluorogenic γ-secretase substrate, or endogenous C99 itself. […] C99 cleavage by γ-secretase was measured by de novo Aβ 40 generation. […]

[6] = system: constitutively active mutant Rac1-Val12 (RACV12); assay: Transient expression luciferase reporter assays in NIH3T3 cells cotransfected with RacV12; conditions: c-Jun, NF-KB and cyclin D1 reporter constructs; qualitative
Method: Briefly, 250,000 NIH3T3 cells/well were seeded in 6-well plates and were co-transfected 24 h later with plasmids prK5-RacV12 and reporter constructs using LipofectAMINE Plus (Invitrogen). Compound of interest was added after the incubation with LipofectAmine. 24 h after transfection, cells were starved for an additional 24 h with Dulbecco's modified Eagle medium supplemented with 0.5% FBS together with the appropriate doses of test compounds or the solvent only. Analyses of the cell lysates of the transiently transfected NIH3T3 cells were performed using the Luciferase Assay System (Promega) and Fluoroscan Ascent FL plate reader (Thermo LabSystems). […] However, consistent and reproducible data were obtained in different assays performed using several plasmid preparations, and we monitored protein concentration for yield in the cell extracts as well as expression of the tagged, exogenous protein by Western blotting.

[7] = system: Aβ 40 production in SH-SY5Y cells; conditions: for reduction in secreted Aβ 40 levels: 18 h
Method: Cells were treated 48 hours after plating in 10 cm plates with various concentrations of the indicated molecules, or DMSO as the vehicle for 16 hours. To do so, medium was replaced with 5 ml of new medium in which treatments were performed. Total DMSO dilution was 1/1000 in all cases. Cells were allowed to secrete in 5 ml medium for 7 hours in the presence of 1 μM phosphoramidon.
Stably transfected swAPP-HEK293 cells were incubated for 7 hours in the presence of phosphoramidon (1 μM) (Sigma). Media and cell lysates were collected as above, centrifuged, normalized to total protein and assayed for Aβ 40 and Aβ 42 by sandwich ELISA according to the manufacturer's instructions (Biosource International). For Aβ 42 detection, samples were concentrated on YM3 Microcon columns (Millipore). […] Right cortices were homogenized for 3 h at room temperature in 5M Guanidine-Hcl, 50 mM Tris-Hcl, pH8 with a protease inhibitor mixture (Roche Diagnostics). Tissue homogenates were diluted 1:1 (v/v) in BSAT-DPBS buffer (Dulbecco's phosphate buffered saline with 5% BSA and 0.03% Tween-20), pH 7.4, and were centrifuged at 20,000 g for 20 min at 4° C. Supernatants were diluted 1:1 (v/v) in ELISA kit sample buffer, normalized to total protein and assayed for Aβ 40 and Aβ 42 by sandwich ELISA according to the manufacturer's instructions. For Aβ 42 detection, samples were concentrated on YM3 Microcon columns (Millipore).

Rac1 = Rac1 (Homo sapiens, UniProt P63000); assay: Endogenous Rac GTPase activation assay (GST-Pak-PBD pull-down of GTP-Rac1) in U87-MG cells; conditions: qualitative
Method: U87-MG cells were grown in a 150-mm-diameter dish until they reached 80% confluency. The cells were then treated with the test compounds or the solvent only. Cells were then lyzed in a buffer containing 0.5% triton, 10 mM Tris pH7.5, mM KCl, 120 mM NaCl and 1.8 mM CaCl2. Lysates were clarified, the protein concentrations were normalized, and the GTP-bound Rac1 in the lysates were measured using the Rac Activation Assay Biochem kit (Cytoskeleton) as per manufacturer's recommendations.
We used a GST-fusion protein containing the p21-binding domain (PBD) of human p21-activated kinase 1 (Pak1) to affinity precipitate endogenous active Rac1 (GTP-Rac1) from cell lysates to monitor the activation of the small GTPase Rac1.

γ-secretase [8] = assay: γ-Secretase assay, compound added to solubilized γ-secretase preparations; type: biochemical
Method: We implemented a an assay allowing de novo Aβ generation in vitro, using cell membranes as the source of γ-secretase. Preparation of solubilized γ-secretase fractions was performed essentially as described previously (Li, Y. M., Lai, M. T., Xu, M., Huang, Q., DiMuzio-Mower, J., Sardana, M. K., Shi, X. P., Yin, K. C., Shafer, J. A., and Gardell, S. J. (2000) Proc. Natl. Acad. Sci. U.S.A. 97, 6138-6143) with the above modifications. All incubations were performed in the presence of Complete Protease Inhibitor Cocktail. Confluent plates swAPP-HEK293 cells were lysed in 1 ml of ice-cold CelLytic-M (Sigma) and incubated 15 minutes at 4° C. on a shaker. Cell debris and nuclei were removed by centrifugation at 1000×g for 15 min at 4° C. For membrane isolation, the supernatant solutions were centrifuged at 20,000×g for 1 hour at 4° C. After centrifugation, the ensuing pellets were resuspended in 100 μl activity buffer (150 mM Na Citrate, pH 6.4)/cells plate and were defined as solubilized γ-secretase, as previously shown by Pinnix et al. (2001). Solubilized γ-secretase activity was induced at 37° C. for 2 h with or without the indicated treatments and Aβ 40 generated de novo was quantified by ELISA. Control experiments used the internally quenched fluorogenic γ-secretase substrate NMA-[…](DNP)-DRDRDR-NH2 (λex=355 nm; λem=440 nm) from Calbiochem, which contains the C-terminal β-APP amino acid sequence that is cleaved by γ-secretase and the γ-secretase inhibitor N—[N-(3,5-Difluorophenacetyl-L-alanyl)]-S-phenylglycine t-Butyl Ester (DAPT, Calbiochem).
To test this hypothesis, we used an established γ-secretase assay allowing de novo Aβ generation in vitro, using cell membranes as the source of γ-secretase. Solubilized γ-secretase fractions are activated in a γ-secretase buffer (see experimental procedures) and activity is monitored following either the cleavage of an internally quenched fluorogenic γ-secretase substrate, or endogenous C99 itself. The well characterized cell permeable γ-secretase inhibitor DAPT (Lanzn, T. A., Himesn, C. S., Pallanten, G., Adamsn, L., Yamazakin, S., Amoren, B., and Merchantn, K. M. (2003) J. Pharmacol. Exp. Ther. 305, 864-871) is included as control. C99 cleavage by γ-secretase was measured by de novo Aβ 40 generation. De novo Aβ 40 production increased with time and was optimal at 37° C. (FIG. 4 B). […] When temperature decreased, Aβ 40 generation decreased in parallel and was abolished at 4° C., in accordance with an enzymatic processing. […] (data not shown).

[9] = Acute toxicity and tolerability in rat; conditions: in vivo
Cdc42 = Cdc42 (Homo sapiens, UniProt P60953); conditions: Gao et al. 2004; Picard et al., submitted; cited from earlier work
Cdc42, sequence (P60953 whole entry, species assumed): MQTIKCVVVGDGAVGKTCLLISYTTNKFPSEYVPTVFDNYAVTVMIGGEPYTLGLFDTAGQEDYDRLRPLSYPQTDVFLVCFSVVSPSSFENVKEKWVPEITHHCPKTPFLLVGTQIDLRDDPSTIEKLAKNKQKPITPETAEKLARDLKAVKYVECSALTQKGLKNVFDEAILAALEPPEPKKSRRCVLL

Recombinant Rac3 = Recombinant Rac3 (Homo sapiens, UniProt P60763); assay: biochemical
[10] = system: Rac1-dependent cytoskeleton rearrangements; conditions: Picard et al., submitted; cited from earlier work
BACE1 = target: T1, BACE1 (Homo sapiens, UniProt P56817); assay: Cellular BACE activity, HEK293 cells stably expressing BACE1; type: cell-based; conditions: cells incubated 24 hours with compound 38 at 2, 10 or 20 μM
T1 construct: expressed in transfected cells; host or cells: HEK293
T1 sequence (P56817 46-501): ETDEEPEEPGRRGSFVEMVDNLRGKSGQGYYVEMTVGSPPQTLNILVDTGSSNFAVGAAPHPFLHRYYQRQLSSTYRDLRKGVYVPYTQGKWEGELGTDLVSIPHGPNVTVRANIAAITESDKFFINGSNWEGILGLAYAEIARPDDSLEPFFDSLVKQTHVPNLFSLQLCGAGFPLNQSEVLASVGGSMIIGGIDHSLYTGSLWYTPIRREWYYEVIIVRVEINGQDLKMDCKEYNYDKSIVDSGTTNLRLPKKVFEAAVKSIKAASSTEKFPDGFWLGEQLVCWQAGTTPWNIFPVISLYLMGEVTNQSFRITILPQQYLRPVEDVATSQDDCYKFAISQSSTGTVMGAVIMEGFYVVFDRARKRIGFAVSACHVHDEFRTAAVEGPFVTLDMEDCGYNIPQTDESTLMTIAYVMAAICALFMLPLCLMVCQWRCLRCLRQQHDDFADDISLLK
Source text: (§1) The human BACE1 cDNA was generated by RT-PCR from human brain mRNA samples (Biocat, Germany) and cloned into pcDNA3 expression vector. Subsequently, a HEK293 cell line stably expressing BACE1 was generated and used as a source of BACE1. An in vitro assay was developed based on previous studies (Ermolieff, J., Loy, J. A., Koelsch, G., and Tang, J. (2000) Biochemistry 39, 12450-12456) using a quenched fluorogenic substrate containing the Swedish mutation MCA-[…](DNP)-CONH2 (Substrate V, Calbiochem). Proteins were extracted in 20 mM MES/1% Triton X100 plus protease inhibitor cocktail by incubation on ice for 30 minutes. The assay was carried out in black 96 well plates (ATGC) in a volume of 200 μl reaction buffer (25 mM MES/25 mM Sodium Acetate/25 mM Tris, pH 4.4), containing 25 μl of the preparation plus 15 μM peptide Substrate V. Excitation was performed at 320 nm and the reaction kinetics were monitored by measuring the fluorescence emission at 420 nm on a Fluoroscan Ascent FL plate reader (Thermo LabSystems). Controls included purified recombinant human BACE501 protein (R&D Systems) diluted at 1 μg/well in 200 μl of 0.1 M Na Acetate buffer (pH 4.4), the BACE substrate analog inhibitor III (H-Glu-Val-Asn-Statine-Val-Ala-Glu-Phe-NH2, Calbiochem), or substrate alone, and background fluorescence was subtracted to recorded BACE activitiy. […]

Recombinant Rac2 = Recombinant Rac2 (Homo sapiens, UniProt P15153); assay: biochemical
[11] = rat, in vivo
[12] = target: T2, recombinant human BACE protein (Homo sapiens, UniProt P56817); assay: BACE fluorogenic assay with recombinant protein; type: biochemical; conditions: recombinant human BACE 1 μg/well, pH4.4; compound 38 at 2, 10 or 20 μM and higher
T2 construct: purchased R&D Systems
T2 sequence (P56817 46-501): as above
Source text: as §1

[13] = rat, in vivo; remark: listed apart in the source
[14] = Homo sapiens, read-out: IC50, secreted Aβ 40

With `CCN(CC)CCCC(C)Nc1nc(C)cc(Nc2ccc3nc(C)cc(N)c3c2)n1` (racemic) [compound 49] as the compound, how does the “APP expression and maturation, α-secretase pathway (APP, C83, sAPPα)” value ([1]; swAPP-HEK293, 16 hours) read?
Its value is “no alterations”.

And the “intracellular Aβ 40” value ([2]; swAPP-HEK293)?
Its value is “no intracellular accumulation of Aβ 40”.

What about the “intracellular levels of Aβ 42” value ([2]; swAPP-HEK293) of the same compound?
The value was “dose-dependently decreased”.

And the “Notch cleavage (NICD by Western blot)” value [3]?
Its value is “no alterations”.

And the IC50 [4, 14]?
The IC50 was 48.9 µM.

And the inhibition at 50 µM ([4]; Homo sapiens, read-out: inhibition of released Aβ 42)?
Its inhibition at 50 µM is 58%.

What about the “secreted Aβ 40 levels” value ([4]; swAPP-HEK293, various concentrations, qualitative) of the same compound?
Its value is “dose-dependently reduced secreted Aβ 40 levels”.

What about the “extracellular levels of Aβ 42” value ([4]; swAPP-HEK293, qualitative) of the same compound?
Its value is “dose-dependently decreased”.

And the “activity on / interaction with RhoA” value (RhoA)?
Its value is “does not interact with cdc42 and RhoA”.

And the “activity on / interaction with RhoA” value (RhoA; listed as NSC23766)?
Its value is “not to affect the activity of Cdc42 or RhoA”.

Which results are given for `CN1CCN(Cc2cc(=O)c(OCCCCCOc3ncnc4ccccc34)co2)CC1` (racemic) [compound 53, 5-(5-(Quinazolin-4-yloxy)pentyloxy)-2-((4-methylpiperazin-1-yl)methyl)-4H-pyran-4-one]?
de novo Aβ production from C99 (γ-secretase activity) (γ-secretase [5]): did not affect γ-secretase activity; luciferase activity from all 3 reporter constructs [6]: did not change luciferase activity; Aβ 40 and Aβ 42 intracellular levels [2]: strictly inactive; reducing Aβ levels ([7]; qualitative): strictly inactive; Rac1 activation (Rac1): totally unable to inhibit Rac1 activation; secreted Aβ 40 and Aβ 42 ([4]; qualitative): strictly inactive

For `C[C@H](NC(=O)Cc1cc(F)cc(F)c1)C(=O)N[C@H](C(=O)OC(C)(C)C)c1ccccc1` [DAPT, N—[N-(3,5-Difluorophenacetyl-L-alanyl)]-S-phenylglycine t-Butyl Ester, reference compound], which “Aβ production (de novo Aβ 40 generation)” value (γ-secretase [8]; control inhibitors, DAPT at 2 μM) is on record?
Its value is “completely inhibited”.

And the “Notch cleavage (NICD by Western blot)” value [3]?
The value was “potently inhibited”.

What does the source list for `Cl.Cl.O=c1cc(CN2CCOCC2)occ1OCCCCCSc1ccnc2cc(C(F)(F)F)ccc12` [compound 38, 5-(5-(7-(Trifluoromethyl)quinolin-4-ylthio)pentyloxy)-2-(morpholinomethyl)-4H-pyran-4-one dihydrochloride]?
de novo Aβ 40 generation from membrane preparations (γ-secretase [8]; added to solubilized γ-secretase from untreated cells, 50 μM): did not change; de novo Aβ 40 generation from membrane preparations (γ-secretase [8]; concentrations as high as 4 mM): lack of effect; cleavage of fluorogenic γ-secretase substrate (γ-secretase [8]; direct addition): not a direct competitive inhibitor of γ-secretase; de novo Aβ production from C99 (γ-secretase activity) (γ-secretase [5]): dose-dependent reduction; LD50 ([9]; iv): 50 mg/kg; LD50 ([9]; po): > 1000 mg/kg; activity on / interaction with Cdc42 (Cdc42): selective over cdc42 and RhoA; Kd (Recombinant Rac3): 0.27 µM; C99 level ([1]; swAPP-HEK293): dose-dependent increase in C99; level of full-length cytosolic and membranous APP ([1]; swAPP-HEK293): unchanged; C83 levels ([1]; swAPP-HEK293, 20, 10 or 2 μM): neither affected sAPPα nor C83 levels; sAPPα levels secreted in culture medium ([1]; swAPP-HEK293, 20, 10 or 2 μM): neither affected sAPPα nor C83 levels; Rac1-dependent cytoskeleton rearrangements [10]: prevents; Aβ 40 and Aβ 42 intracellular levels [2]: dose-dependent decrease; cellular BACE activity (fluorescence) (BACE1): did not affect fluorescence; decrease in Aβ 42 levels (brain Aβ 40 and Aβ 42; guinea pig, 40 mg/kg per day i.p., 15 days, just below significance): 23.6%; lowering of brain Aβ 40 (brain Aβ 40 and Aβ 42; guinea pig, 40 mg/kg per day i.p., 15 days, p<0.05 Wilcoxon): 37%; reduction in Aβ levels in vivo (brain Aβ 40 and Aβ 42; summary statement): ~30%; C83 and C99 levels (brain Aβ 40 and Aβ 42; treated guinea pigs): No significant changes; full-length APP levels (brain Aβ 40 and Aβ 42; treated guinea pigs): no change; Notch cleavage (NICD by Western blot) [3]: did not affect Notch cleavage; reduction in secreted Aβ 40 levels ([7]; 2 μM): 12.9%; reduction in secreted Aβ 40 levels ([7]; 10 μM): 30.1%; reduction in secreted Aβ 40 levels ([7]; 20 μM): 79.8%; IC50 [7, 14]: 5.44 µM; genotoxicity (Ames test) (Ames test): no genotoxicity; Kd (Recombinant Rac2): 0.06 µM; Aβ 40 and Aβ 42 levels ([4]; swAPP-HEK293, 50 μM or above): below the detection limit; secreted Aβ 40 and Aβ 42 ([4]; qualitative): dose-dependently inhibits both Aβ species; brain concentrations ([11]; iv, 5 mg/kg): 130 ng/g; brain concentrations ([11]; po, 100 mg/kg): 54 ng/g; BACE activity (cleavage of fluorogenic Substrate V) [12]: did not affect fluorescence; activity on / interaction with RhoA (RhoA): selective over cdc42 and RhoA; tolerability [13]: good tolerability

Which “cellular BACE activity (fluorescence)” value (BACE1) does the source give for “H-Glu-Val-Asn-Statine-Val-Ala-Glu-Phe-NH2 [BACE Inhibitor III, reference compound]” here?
The value was “inhibited”.

What about the “BACE activity (cleavage of fluorogenic Substrate V)” value [12] of the same compound?
The value was “abolished the cleavage”.
